Columns and labels:
Test in all cases: two-electrode voltage clamp, oocytes, concentration-response
Type in all cases: cell-based
[1] = molecular target: T1, Xenopus tropicalis α4β2 nAChR, α4β2(FS) (Xenopus tropicalis, UniProt A0A8J0QAC2+A4IIS6, A4IIS6:S133C)
T1 construct: gene chrna4; full-length single subunits in pCMV-SPORT6 (Dharmacon), cRNA co-injected in Xenopus laevis oocytes; stoichiometry unknown
Source text: (§1) two-electrode voltage clamp, oocytes, concentration-response on Xenopus tropicalis α4β2 nAChR, α4β2(FS)

[2] = molecular target: T2, Xenopus tropicalis α4β2 nAChR, α4β2(FS) (Xenopus tropicalis, UniProt A0A8J0QAC2+A4IIS6, A4IIS6:F131L/A4IIS6:S133C)
T2 construct: gene chrna4; full-length single subunits in pCMV-SPORT6 (Dharmacon), cRNA co-injected in Xenopus laevis oocytes; stoichiometry unknown
Source text: as §1

[3] = molecular target: T3, Xenopus tropicalis α4β2 nAChR, α4β2(FS) (Xenopus tropicalis, UniProt A0A8J0QAC2+A4IIS6)
T3 construct: gene chrna4; full-length single subunits in pCMV-SPORT6 (Dharmacon), cRNA co-injected in Xenopus laevis oocytes; stoichiometry unknown
Source text: as §1

[4] = tested on: T4, Nanorana parkeri α4β2 nAChR, α4β2(FS); settings: agonist; α4:β2 cRNA ratio 1:3; -70 mV; Ba-ND96 with 1 µM atropine; room temperature; high-sensitivity site of biphasic fit, 95% CI
T4 construct: full-length single subunits, codon-optimized synthetic DNA in pGEMHE, cRNA co-injected in Xenopus laevis oocytes; behaves as 3α:2β (conjecture)
Source text: two-electrode voltage clamp, oocytes, concentration-response on Nanorana parkeri α4β2 nAChR, α4β2(FS)

Question: What does the source list for `CC(=O)OCC[N+](C)(C)C` [acetylcholine]?
Answer: EC50 [1]: 18 nM; EC50 [2]: 21 nM; EC50 [3]: 47 nM; EC50 [4]: 290 nM
